The results in this text go back to ChEMBL document CHEMBL1201862, “PubChem BioAssay data set” (2004).

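The compound was tested at five concentrations on cells cultured in 96-well plates, with a 48-hour exposure period. GI50 marks 50% less growth.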 The source made the active and inactive calls. No stated cut-off is given here; in the data, active = GI50 up to about 1.1 µM and inactive = higher.

Among the test systems are XF498; DMS-273; RXF 393; SNB-78; SK-MEL-2; HCT-116; HOP-18; HL-60; KM-20L2; KM12; OVCAR-8; DLD-1; SF-539; A498; RPMI-8226; SK-MEL-28; LXFL 529.
What all share (experiment): NCI anticancer screen, dose series, 48 h

For `CC1=C2C(O)C(C(C)C(=O)NC(C)C)CCC2(C)C=CC1=O` (stereo unspecified), the GI50 in the assay on XF498, in the assay on DMS-273, with RXF 393, with SNB-78, in the assay on SK-MEL-2 and with HCT-116 was > 100 µM (inactive) in each case. The GI50 in the assay on HOP-18, with HL-60, with KM-20L2, in the assay with KM12, in the assay with OVCAR-8 and with DLD-1 was > 100 µM (inactive) in each case. The GI50 in the assay on SF-539, in the assay on A498, in the assay with RPMI-8226 and in the assay with SK-MEL-28 was > 100 µM (inactive) throughout.
For `N#CN=C(NCCO)NCCO`, the GI50 is > 100 µM (inactive) in the assay with XF498; > 100 µM (inactive) with SNB-78; > 100 µM (inactive) in the assay with LXFL 529; > 100 µM (inactive) in the assay on SK-MEL-2; > 100 µM (inactive) in the assay on HCT-116; 45.1 µM (inactive) with HOP-18. Also, the GI50 with HL-60, with KM-20L2, in the assay on KM12, in the assay on OVCAR-8, in the assay on DLD-1 and with SF-539 was > 100 µM (inactive) in each case. Also, the GI50 with A498 was 92.7 µM (inactive); in the assay with RPMI-8226, > 100 µM (inactive); in the assay on SK-MEL-28, > 100 µM (inactive).
With `COC(=O)c1cc(-c2cccn2C)c2c(c1C(=O)OC)c1ccccc1n2C`, the GI50 in the assay on XF498 was > 100 µM (inactive); with DMS-273, 34.1 µM (inactive); with RXF 393, > 100 µM (inactive); in the assay with SNB-78, > 100 µM (inactive); in the assay on LXFL 529, 40.2 µM (inactive); in the assay with SK-MEL-2, > 100 µM (inactive). In addition, the GI50 with HOP-18 was > 100 µM (inactive); with HL-60, 37.5 µM (inactive); in the assay with KM12, 53.7 µM (inactive); in the assay on OVCAR-8, 56.9 µM (inactive); in the assay with DLD-1, 7.62 µM (inactive); in the assay on SF-539, 43.8 µM (inactive). In addition, the results for the GI50 in the assay on RPMI-8226 and in the assay on SK-MEL-28 were 43.7 µM (inactive) and 71.1 µM (inactive), respectively.
As for `CC(=O)OC1CCC2(C)C3CCC4(C)C(c5ccc(=O)oc5)CC5OC54C3CCC2(O)C1` (stereo unspecified), the GI50 with XF498 is 2.92 µM (inactive); in the assay with DMS-273, 0.798 µM (active); with RXF 393 it was 0.479 µM (active); with SNB-78, 1.14 µM (inactive); with SK-MEL-2, 4.86 µM (inactive); with HCT-116 it was 0.706 µM (active). Besides, the GI50 is 0.461 µM (active) in the assay on HOP-18; 0.522 µM (active) with HL-60; 2.15 µM (inactive) in the assay with KM-20L2; 3.21 µM (inactive) with KM12; 1.15 µM (inactive) in the assay on OVCAR-8; 0.521 µM (active) in the assay with DLD-1. Besides, the GI50 is 0.75 µM (active) in the assay with SF-539, 1.55 µM (inactive) in the assay with A498, 0.869 µM (active) in the assay with RPMI-8226 and 4.27 µM (inactive) in the assay on SK-MEL-28.
